Results taken from patent US8252723B2, “Substituted 1-(3-pyridinyl)pyrazol-4-ylacetic acids, processes for their preparation and their use as herbicides and plant growth regulators” (Bayer CropScience AG, priority 2006, dated 2012).

How the values were obtained:
[1] = tested on: weed plants such as Lolium multiflorum, Amaranthus retroflexus, Sinapis alba, Stellaria media and Setaria viridis; experiment: Pre-emergence effect on weeds (greenhouse pot test, visual scoring); assay type: in vivo; details: pre-emergence method, application rate of 1 kg or less of active substance per hectare, visual scoring after 3 to 4 weeks vs untreated controls; read-out: herbicidal action (control)
Description: Seeds or sections of rhizome from monocotyledonous and dicotyledonous weed plants were laid out in sandy loam soil in plastic pots, and covered with soil. The compounds according to the invention, formulated as wettable powders or emulsifiable concentrates, were then applied, in the form of aqueous suspensions or emulsions, at various dosages, onto the surface of the covering soil, at an application rate of 600 to 800 l of water/ha (converted).

[2] = tested on: summer wheat of the cultivar 'Triso'; experiment: Plant growth regulation test: culm stabilization of crop plants; assay type: in vivo; details: application rate of 30 to 300 g of active substance per hectare, treated at stage BBCH 31, culm length measured after ears had formed
Outline: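 Wettable-powder formulation with adjuvant (1 l/ha) sprayed at 300 l water/ha onto pot-grown plants at BBCH 31, then kept outdoors. After ear formation culm length was measured; culm stabilization is expressed as percent of untreated control.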

[3] = tested on: weed plants such as Lolium multiflorum, Amaranthus retroflexus, Sinapis alba, Stellaria media and Setaria viridis; experiment: Post-emergence effect on weeds (greenhouse pot test, visual scoring); assay type: in vivo; details: application rate of 500 g or less of active substance per hectare, visual scoring after about 3 to 4 weeks vs untreated controls, read-out: herbicidal action (control)

Structure (SMILES) | pest or weed control at up to 1000 g/ha [1] | longitudinal growth (culm length) of summer wheat [2] | pest or weed control at up to 500 g/ha [3] | melting point
COC(=O)Cc1c(C)nn(-c2cccnc2)c1-c1cccc(Cl)c1 [Example 2-17, Methyl [5-(3-chlorophenyl)-3-methyl-1-pyridin-3-yl-1H-pyrazol-4-yl]acetate] | ≥ 70% | effectively shortened | ≥ 70% | 
Cc1nn(-c2cccnc2)c(-c2ccccc2)c1CC(=O)O [Example 1-2, 3-methyl-5-phenyl-1-(3-pyridyl)pyrazole-4-acetic acid] | ≥ 70% | effectively shortened | ≥ 70% | 192 °C
COC(=O)Cc1c(C)nn(-c2cnccc2C)c1-c1ccccc1 [Example 2-10, Methyl [3-methyl-1-(4-methylpyridin-3-yl)-5-phenyl-1H-pyrazol-4-yl]acetate] | ≥ 70% | effectively shortened | ≥ 70% | 
O=C(O)Cc1c(-c2ccccc2)nn(-c2cccnc2)c1-c1ccccc1 [Example 1-1, 3,5-diphenyl-1-(3-pyridyl)pyrazole-4-acetic acid] | ≥ 70% | effectively shortened | ≥ 70% | 172 °C
Cc1ccncc1-n1nc(C)c(CC(=O)O)c1-c1ccccc1 [Example 1-10, [3-Methyl-1-(4-methylpyridin-3-yl)-5-phenyl-1H-pyrazol-4-yl]acetic acid] | ≥ 70% | effectively shortened | ≥ 70% | 
Cc1nn(-c2cccnc2)c(-c2cccc(Cl)c2)c1CC(=O)O [Example 1-17, [5-(3-Chlorophenyl)-3-methyl-1-pyridin-3-yl-1H-pyrazol-4-yl]acetic acid] | ≥ 70% | effectively shortened | ≥ 70% | 
Cc1ccncc1-n1nc(C)c(CC(=O)OCC2CC2)c1-c1ccccc1 [Example 3-99, Cyclopropylmethyl [3-methyl-1-(4-methylpyridin-3-yl)-5-phenyl-1H-pyrazol-4-yl]acetate] | ≥ 70% | effectively shortened | ≥ 70% | 
COC(=O)Cc1c(C(=O)OC)nn(-c2cccnc2)c1-c1ccccc1 [Example 2-127] |  | effectively shortened |  | 
C#CCOC(=O)Cc1c(C)nn(-c2cnccc2C)c1-c1ccccc1 [Example 3-76, Prop-2-yn-1-yl [3-methyl-1-(4-methylpyridin-3-yl)-5-phenyl-1H-pyrazol-4-yl]acetate] | ≥ 70% | effectively shortened | ≥ 70% | 
COC(=O)Cc1c(C)nn(-c2cnccc2C)c1-c1ccc(C)cc1 [Example 2-36] |  | effectively shortened |  | 
COC(=O)Cc1c(C)nn(-c2cccnc2)c1-c1ccc(OC)nc1 [Example 2-62] |  | effectively shortened |  | 
C=C(Cl)COC(=O)Cc1c(C)nn(-c2cccnc2)c1-c1ccc(Cl)s1 [Example 3-190] |  | effectively shortened |  | 
COC(=O)Cc1c(C)nn(-c2cccnc2)c1-c1cccc(OC)n1 [Example 2-145] |  | effectively shortened |  | 
COC(=O)Cc1c(C)nn(-c2cccnc2)c1-c1ccc(F)cc1 [Example 2-120] |  | effectively shortened |  | 
COC(=O)Cc1c(C)nn(-c2cccnc2)c1-c1sccc1C [Example 2-58] |  | effectively shortened |  | 
Cc1nn(-c2cccnc2)c(-c2ccccn2)c1CC(=O)O [Example 1-109] |  | effectively shortened |  | 
COC(=O)Cc1c(C)nn(-c2cnccc2SC)c1-c1ccc(Cl)cc1 [Example 2-45] |  | effectively shortened |  | 

Structure (SMILES) | pest or weed control at up to 1000 g/ha [1] | longitudinal growth (culm length) of summer wheat [2] | pest or weed control at up to 500 g/ha [3] | melting point
Cc1ccncc1-n1nc(C)c(CC(=O)O)c1-c1ccc(Cl)c(C(F)(F)F)c1 [Example 1-48] |  | effectively shortened |  | 
Cc1nn(-c2cccnc2)c(-c2ccc(Cl)s2)c1CC(=O)O [Example 1-60] |  | effectively shortened |  | 
Cc1ccncc1-n1nc(C)c(CC(=O)O)c1-c1cccc(Cl)c1 [Example 1-21] |  | effectively shortened |  | 
COc1ccc(-n2nc(C)c(CC(=O)O)c2-c2ccccc2)cn1 [Example 1-5] |  | effectively shortened |  | 
C=C(Cl)COC(=O)Cc1c(C)nn(-c2cccnc2)c1-c1ccc(F)cc1 [Example 3-198] |  | effectively shortened |  | 
COC(=O)Cc1c(C)nn(-c2ccc(Cl)nc2Cl)c1-c1ccccc1 [Example 2-12] |  | effectively shortened |  | 
Cc1ccc(-c2c(CC(=O)O)c(C)nn2-c2cnccc2C)cc1 [Example 1-36] |  | effectively shortened |  | 
CC#CCOC(=O)Cc1c(C)nn(-c2cnccc2C)c1-c1ccccc1 [Example 3-139] |  | effectively shortened |  | 
Cc1ccncc1-n1nc(C)c(CC(=O)O)c1-c1ccc(Cl)cc1Cl [Example 1-23] |  | effectively shortened |  | 
COC(=O)Cc1c(C)nn(-c2cnccc2C)c1-c1cc(C)cc(C)c1 [Example 2-33] |  | effectively shortened |  | 
COC(=O)Cc1c(C)nn(-c2cccnc2)c1-c1ccc(Cl)c(C)c1 [Example 2-123] |  | effectively shortened |  | 
C=C(Cl)COC(=O)Cc1c(C)nn(-c2cccnc2)c1-c1cccs1 [Example 3-186] |  | effectively shortened |  | 
COC(=O)Cc1c(C)nn(-c2cccnc2)c1-c1ccc(C(C)(C)C)cc1 [Example 2-122] |  | effectively shortened |  | 
COC(=O)Cc1c(C)nn(-c2cccnc2)c1-c1ccco1 [Example 2-4] |  | effectively shortened |  | 
COc1ccncc1-n1nc(C)c(CC(=O)O)c1-c1ccccc1 [Example 1-34] |  | effectively shortened |  | 
COC(=O)Cc1c(C)nn(-c2cccnc2)c1-c1ccc(C)c(Cl)c1 [Example 2-46] |  | effectively shortened |  | 
COC(=O)Cc1c(C)nn(-c2cnccc2C)c1-c1cccc(C)c1 [Example 2-38] |  | effectively shortened |  | 
